`Cc1csc2[nH]cc(C#N)c(=O)c12` [Example 3, 3-methyl-4-oxo-4,7-dihydrothieno[2,3-b]pyridine-5-carbonitrile] registered a melting point of 285 °C.
`CC(C)c1c(I)sc2ncc(C#N)c(Cl)c12` [Example 8, 4-chloro-2-iodo-3-isopropylthieno[2,3-b]pyridine-5-carbonitrile] registered a melting point of 177 to 179 °C.
With `N#Cc1cnc2sc(Br)cc2c1O` [Example 30, 2-bromo-4-hydroxythieno[2,3-b]pyridine-5-carbonitrile] the figure was above 255 °C; with `N#Cc1cnc2sc(-c3ccccc3)cc2c1Cl` [Example 16, 4-chloro-2-phenylthieno[2,3-b]pyridine-5-carbonitrile], 202 to 204 °C; with `Cc1cc2c(Cl)c(C#N)cnc2s1` [Example 10, 4-chloro-2-methylthieno[2,3-b]pyridine-5-carbonitrile], 110 to 112 °C.

A word on the melting point: it is the temperature of the solid-liquid transition.

(Values after US20080076926A1, “Process for the preparation of 4-hydroxythieno[2,3-b]pyridine-5-carbonitriles” (priority 2006, published 2008).)
